Data: patent US9512175B2, “Macrocyclic inhibitors of flaviviridae viruses” (Gilead Sciences, Inc., priority 2012, dated 2016)
Read-outs that look alike come from different tables or passages of the source.

Key:
cyclophilin A = cyclophilin A (Homo sapiens, UniProt P62937); assay: Cyclophilin A TR-FRET competitive binding assay; settings: IC50 ranges, competition with CsA-Cy5 for His-tagged CypA, two-hour incubation
Method: Cyclophilin A TR-FRET Competitive Binding Assay
Inhibitor potency was measured using a competitive binding assay with a time-resolved fluorescence resonance energy transfer (TR-FRET) readout. […] An IC50 value was calculated using a four-parameter logistic fit.

[1] = tested on: HCV replicon (Replicon 1a); assay: anti-HCV activity in Huh-7 cell line harboring a HCV replicon (Replicon 1a); type: cell-based; settings: for inhibition at 1 µM: Hepatitis C virus, Huh-7, 72 h
[2] = read-out: Replicon 1a % inhibition at 1 μM, 1 μM, human hepatoma Huh-7 HCV replicon cells, 3 days, luciferase readout
[3] = read-out: Replicon 1a % inhibition at 1 μM

Chain of cyclophilin A (P62937 whole entry, species assumed): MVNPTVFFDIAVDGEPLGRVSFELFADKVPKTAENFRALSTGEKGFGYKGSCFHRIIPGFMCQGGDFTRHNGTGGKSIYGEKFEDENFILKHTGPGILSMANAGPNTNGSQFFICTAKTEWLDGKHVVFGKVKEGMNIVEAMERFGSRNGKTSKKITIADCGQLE

SMILES | IC50 (cyclophilin A; read-out: TR-FRET) | inhibition at 1 µM [1, 2] | inhibition at 1 µM [1, 3] | IC50 (cyclophilin A; TR-FRET) | Replicon 1a % inhibition at 1 μM ([1]; 1 μM, human hepatoma Huh-7 HCV replicon cells, 3 days, luciferase readout)
C[C@@H]1NC(=O)[C@H](Cc2ccccc2)NC(=O)C/C=C/c2cc3cc(ccc3cn2)[C@@H](C)OC(=O)[C@@H]2CCCN(N2)C1=O [Compound 54] | < 100 nM | 98% | – | – | –
C[C@@H]1NC(=O)[C@H](Cc2cccnc2)NC(=O)C(C)(C)/C=C/c2cc3cc(ccc3cn2)[C@@H](C)OC(=O)[C@@H]2CCCN(N2)C1=O [Compound 55] | 101 to 1000 nM | 76% | – | – | –
C[C@@H]1NC(=O)[C@H](CCc2ccccc2)NC(=O)C/C=C/c2cc3cc(ccc3cn2)[C@@H](C)OC(=O)[C@@H]2CCCN(N2)C1=O [Compound 56] | 101 to 1000 nM | 47% | – | – | –
CC(C)[C@@H]1NC(=O)C2(CCOCC2)CCc2cc3cc(ccc3cn2)[C@@H](C)OC(=O)[C@@H]2CCCN(N2)C(=O)[C@H](C)NC1=O [Compound 60] | 101 to 1000 nM | 65% | – | – | –
CC(C)[C@@H]1NC(=O)CCCCCc2cc3cc(ccc3cn2)[C@@H](C)OC(=O)[C@@H]2CCCN(N2)C(=O)[C@H](C)NC1=O [Compound 62] | 101 to 1000 nM | 25% | – | – | –
CC(C)[C@@H]1NC(=O)CCCCCCc2cc3cc(ccc3cn2)[C@@H](C)OC(=O)[C@@H]2CCCN(N2)C(=O)[C@H](C)NC1=O [Compound 64] | 101 to 1000 nM | 35% | – | – | –
CC(C)[C@@H]1NC(=O)Cc2cccc(c2)-c2cc3cc(ccc3cn2)[C@@H](C)OC(=O)[C@@H]2CCCN(N2)C(=O)[C@H](C)NC1=O [Compound 65] | < 100 nM | 92% | – | – | –
CC(C)[C@@H]1NC(=O)C(C)(C)c2cccc(c2)-c2cc3cc(ccc3cn2)[C@@H](C)OC(=O)C2CCCN(N2)C(=O)[C@H](C)NC1=O (stereo partly drawn) [Compound 67] | < 100 nM | 97% | – | – | –
CC(C)[C@@H]1NC(=O)C(C)(C)COc2cc3cc(ccc3cn2)[C@@H](C)OC(=O)[C@H]2CCCN(N2)C(=O)[C@H](C)NC1=O [Compound 69] | 1000 to 10000 nM | 19% | – | – | –
C[C@@H]1NC(=O)[C@H](CCn2cc(CO)nn2)NC(=O)C(C)(C)/C=C/c2cc3cc(ccc3cn2)[C@@H](C)OC(=O)[C@@H]2CCCN(N2)C1=O [Compound 72] | 101 to 1000 nM | – | 0% | – | –
CC(C)[C@@H]1NC(=O)C2(/C=C/c3ccc4ccc(nc4c3)[C@@H](C)OC(=O)[C@@H]3CCCN(N3)C(=O)[C@H](C)NC1=O)COC2 [Compound 73] | < 100 nM | 94% | – | – | –
CC(C)[C@@H]1NC(=O)C(CO)(CO)/C=C/c2ccc3ccc(nc3c2)[C@@H](C)OC(=O)[C@@H]2CCCN(N2)C(=O)[C@H](C)NC1=O [Compound 76] | < 100 nM | 63% | – | – | –
CC(C)[C@@H]1NC(=O)[C@@](C)(COCC[Si](C)(C)C)/C=C/c2ccc3ccc(nc3c2)[C@@H](C)OC(=O)[C@@H]2CCCN(N2)C(=O)[C@H](C)NC1=O [Compound 77] | – | – | 99% | < 100 nM | –
CC(C)[C@@H]1NC(=O)[C@@](C)(CO)/C=C/c2ccc3ccc(nc3c2)[C@@H](C)OC(=O)[C@@H]2CCCN(N2)C(=O)[C@H](C)NC1=O [Compound 78] | – | – | 99% | < 100 nM | –
CC(C)[C@@H]1NC(=O)[C@](C)(COCC[Si](C)(C)C)/C=C/c2ccc3ccc(nc3c2)[C@@H](C)OC(=O)[C@@H]2CCCN(N2)C(=O)[C@H](C)NC1=O [Compound 79] | – | – | 96% | < 100 nM | –
CC(C)[C@@H]1NC(=O)[C@](C)(CO)/C=C/c2ccc3ccc(nc3c2)[C@@H](C)OC(=O)[C@@H]2CCCN(N2)C(=O)[C@H](C)NC1=O [Compound 80] | – | – | 97% | < 100 nM | –
CC(C)[C@@H]1NC(=O)[C@H](CC2CC2)/C=C/c2ccc3ccc(nc3c2)[C@@H](C)OC(=O)[C@@H]2CCCN(N2)C(=O)[C@H](C)NC1=O [Compound 81] | – | – | 100% | < 100 nM | –
CC(C)[C@@H]1NC(=O)C(C)(C)/C=C/c2ccc3ccc(nc3c2)[C@@H](C)OC(=O)[C@@H]2CCCN(N2)C(=O)[C@H](CO)NC1=O [Compound 82] | < 100 nM | 99% | – | – | –
CC(C)[C@@H]1NC(=O)[C@@H]([C@@H](C)O)/C=C/c2ccc3ccc(nc3c2)[C@@H](C)OC(=O)[C@@H]2CCCN(N2)C(=O)[C@H](C)NC1=O [Compound 83] | < 100 nM | 99% | – | – | –
CC(C)[C@H]1C(=O)N[C@@H](C)C(=O)N2CCC[C@H](N2)C(=O)N[C@H](C)c2ccc3ccc(cc3n2)/C=C/C2(C)CCN1C2=O [Compound 84] | < 100 nM | 63% | – | – | –
CC(C)[C@@H]1NC(=O)C(C)(C(C)O)/C=C/c2ccc3ccc(nc3c2)[C@@H](C)OC(=O)[C@@H]2CCCN(N2)C(=O)[C@H](C)NC1=O (stereo partly drawn) [Compound 89] | < 100 nM | 99% | – | – | –

SMILES | IC50 (cyclophilin A; read-out: TR-FRET) | inhibition at 1 µM [1, 2] | inhibition at 1 µM [1, 3] | IC50 (cyclophilin A; TR-FRET) | Replicon 1a % inhibition at 1 μM ([1]; 1 μM, human hepatoma Huh-7 HCV replicon cells, 3 days, luciferase readout)
CC(C)[C@@H]1NC(=O)C(C)(C(C)O)/C=C/c2ccc3ccc(nc3c2)[C@@H](C)OC(=O)[C@@H]2CCCN(N2)C(=O)[C@H](C)NC1=O (stereo partly drawn) [Compound 90] | < 100 nM | – | – | – | 100%
CC(C)[C@@H]1NC(=O)C(C)(C)/C=C/c2ccc3ccc(nc3c2)[C@@H](C)OC(=O)[C@@H]2CCCN(N2)C(=O)[C@H]([C@@H](C)O)NC1=O [Compound 91] | < 100 nM | 99% | – | – | –
CC(C)[C@@H]1NC(=O)C(C)(C)/C=C/c2ccc3ccc(nc3c2)[C@@H](C)OC(=O)[C@@H]2CCCN(N2)C(=O)[C@H](CC(=O)OC(C)(C)C)NC1=O [Compound 92] | < 100 nM | 100% | – | – | –
CC(C)[C@@H]1NC(=O)C(C)(C)/C=C/c2ccc3ccc(nc3c2)[C@@H](C)OC(=O)[C@@H]2CCCN(N2)C(=O)[C@H](CC(=O)O)NC1=O [Compound 93] | < 100 nM | 68% | – | – | –
CC(C)[C@@H]1NC(=O)C(C)(C)/C=C/c2ccc3ccc(nc3c2)[C@@H](C)OC(=O)[C@@H]2CCCN(N2)C(=O)[C@H](Cc2cn(C(c3ccccc3)(c3ccccc3)c3ccccc3)cn2)NC1=O [Compound 94] | < 100 nM | 96% | – | – | –
CC(C)[C@@H]1NC(=O)C(C)(C)/C=C/c2ccc3ccc(nc3c2)[C@@H](C)OC(=O)[C@@H]2CCCN(N2)C(=O)[C@H](Cc2c[nH]cn2)NC1=O [Compound 95] | < 100 nM | 68% | – | – | –
CC(C)[C@@H]1NC(=O)C(C)(C)/C=C/c2ccc3cnc(nc3c2)[C@@H](C)OC(=O)[C@@H]2CCCN(N2)C(=O)[C@H](C)NC1=O [Compound 96] | < 100 nM | 100% | – | – | –
CC(C)[C@@H]1NC(=O)C(C)(C)/C=C/c2ccc3ccc(nc3c2)[C@@H](C)OC(=O)[C@@H]2CCCN(N2)C(=O)[C@H](CC(=O)N(C)C)NC1=O [Compound 97] | < 100 nM | 98% | – | – | –
CC(C)[C@@H]1NC(=O)C(C)(C)/C=C/c2ccc3ccc(nc3c2)[C@@H](C)OC(=O)[C@@H]2CCCN(N2)C(=O)[C@H](CC(=O)N2CCCCC2)NC1=O [Compound 98] | < 100 nM | – | 95% | – | –
CC(C)[C@@H]1NC(=O)C(C)(C)/C=C/c2ccc3ccc(nc3c2)[C@@H](C)OC(=O)[C@@H]2CCCN(N2)C(=O)[C@H](CC(=O)N2CCCC2)NC1=O [Compound 99] | < 100 nM | 96% | – | – | –
CC(C)[C@@H]1NC(=O)C(C)(C(C)(C)O)/C=C/c2ccc3ccc(nc3c2)[C@@H](C)OC(=O)[C@@H]2CCCN(N2)C(=O)[C@H](C)NC1=O (stereo partly drawn) [Compound 101] | < 100 nM | 99% | – | – | –
CC(C)[C@@H]1NC(=O)[C@@](C)(CO)/C=C/c2ccc3ccc(cc3c2)[C@@H](C)OC(=O)[C@@H]2CCCN(N2)C(=O)[C@H](C)NC1=O [Compound 104] | < 100 nM | 98% | – | – | –
CC(C)[C@@H]1NC(=O)C(C)(C)/C=C/c2ccc3ccc(nc3c2)[C@@H](C)OC(=O)[C@@H]2CCCN(N2)C(=O)[C@H](COC(F)F)NC1=O [Compound 106] | < 100 nM | 99% | – | – | –
COC[C@@]1(C)/C=C/c2ccc3ccc(nc3c2)[C@@H](C)OC(=O)[C@@H]2CCCN(N2)C(=O)[C@H](C)NC(=O)[C@H](C(C)C)NC1=O [Compound 107] | < 100 nM | 100% | – | – | –
CC(C)[C@@H]1NC(=O)C(C)(C)/C=C/c2ccc3ccc(nc3c2)[C@@H](C)OC(=O)[C@@H]2CCCN(N2)C(=O)[C@H](Cc2cscn2)NC1=O [Compound 110] | < 100 nM | 100% | – | – | –
CC(C)[C@@H]1NC(=O)C(C)(C)/C=C/c2ccc3ccc(nc3c2)[C@@H](C)NC(=O)[C@@H]2CCCN(N2)C(=O)[C@H](C)NC1=O [Compound 111] | < 100 nM | 87% | – | – | –
CC(C)[C@@H]1NC(=O)C(C)(C)/C=C/c2ccc3ccc(nc3c2)[C@@H](C)OC(=O)[C@@H]2CCCN(N2)C(=O)[C@H](COCC2(C)COC2)NC1=O [Compound 114] | < 100 nM | 99% | – | – | –
CC(C)[C@@H]1NC(=O)C(C)(C)/C=C/c2ccc3ccc(nc3c2)C(C)N(C)C(=O)[C@@H]2CCCN(N2)C(=O)[C@H](C)NC1=O (stereo partly drawn) [Compound 115] | < 100 nM | 92% | – | – | –
CC(C)[C@@H]1NC(=O)C(C)(C)/C=C/c2ccc3ccc(nc3c2)[C@@H](C)OC(=O)[C@]2(C)CCCN(N2)C(=O)[C@H](C)NC1=O [Compound 119] | < 100 nM | 98% | – | – | –
CC(C)[C@@H]1NC(=O)C(C)(C)/C=C/c2ccc3ccc(nc3c2)[C@@H](C)NC(=O)[C@@H]2CCCN(N2)C(=O)[C@H](Cc2ccccc2)NC1=O [Compound 120] | < 100 nM | 91% | – | – | –
CC(C)[C@@H]1NC(=O)C2(/C=C/c3ccc4ccc(nc4c3)[C@@H](C)NC(=O)[C@@H]3CCCN(N3)C(=O)[C@H](C)NC1=O)CCC(F)(F)CC2 [Compound 122] | < 100 nM | 96% | – | – | –
